Experimental data reported in publication PMC9394307, “Discovery of Putative Dual Inhibitor of Tubulin and EGFR by Phenotypic Approach on LASSBio-1586 Homologs” (Pharmaceuticals, 2022).

Test system: H1975 cells
Experiment: Immunofluorescence of β-tubulin / microtubules
Type: cell-based, human
Settings: H1975, 48 h; CA-4 0.3 µM, vincristine 0.5 µM, taxol 0.1 µM, LASSBio-1586 10 µM, LASSBio-1735 0.5 µM, LASSBio-2070 4.5 µM, LASSBio-2074 20 µM
Procedure: Antitubulin agents have been broadly classified into destabilizing or stabilizing agents, based on their interference with the dynamic balance of polymerization or depolymerization of microtubules. […] CA-4 (1, 0.3 µM), vincristine (0.5 µM) and taxol (0.1 µM) were used as standard controls.
After incubation, cells were rinsed with PBS and fixed with 4% paraformaldehyde in PBS for 10 min at room temperature. They were then permeabilized with 0.5% Triton-X 100 in PBS 3 times for 10 min. The same solution was used for all subsequent washing steps. Cells were incubated with an anti-beta-tubulin antibody for 1 h at 37 °C. After incubation, cells were washed for 30 min and incubated with Alexa Fluor® 488, conjugated secondary antibody for 1 h at 37 °C, and nuclei were labeled with DAPI (0.1 mg/mL in 0.9% NaCl).
Live cultured cells grown in coverslips were mounted in Prolong Gold solution (Molecular Probes, USA) and were imaged on a Leica TCS SPE confocal microscope (Leica Microsystems, Germany) using 63x 1.3 N.A. oil immersion and the images acquired by the LAS X software. Cell morphology, focusing on the microtubules was analyzed, qualitatively, using the public domain NIH ImageJ Program (developed at the National Institutes of the USA Health and available on the internet at http://imagej.nih.gov/ij/ (accessed on 1 September 2021).

SMILES | cell morphology after treatment | effect on microtubules (stabilizing / destabilizing profile)
CC(=O)O[C@H]1C(=O)[C@@]2(C)[C@H]([C@H](OC(=O)c3ccccc3)[C@]3(O)C[C@H](OC(=O)[C@H](O)[C@@H](NC(=O)c4ccccc4)c4ccccc4)C(C)=C1C3(C)C)[C@]1(OC(C)=O)CO[C@@H]1C[C@@H]2O [taxol, reference compound] | more spread-out morphology | –
CC[C@]1(O)C[C@H]2CN(CCc3c([nH]c4ccccc34)[C@@](C(=O)OC)(c3cc4c(cc3OC)N(C=O)[C@H]3[C@@](O)(C(=O)OC)[C@H](OC(C)=O)[C@]5(CC)C=CCN6CC[C@]43[C@@H]65)C2)C1 [vincristine, reference compound] | rounded shape | typical response of microtubule destabilizing agents
